The results in this text go back to patent US20250032446A1, “METHODS AND COMPOSITIONS FOR THE BIOSYNTHESIS AND USE OF DEMETHYLATED POLYMETHOXY FLAVONES” (RUTGERS, THE STATE UNIVERSITY OF NEW JERSEY, priority 2021, published 2025).

Holding throughout (format): cell-based, mouse
One data set relates to FAS. In words: Immunoblotting, FAS expression. The conditions noted are these: late phase treatment group, day 8. As to the method: Primary antibodies which include AMPK-amAb, and Phospho-AMPKa(p-AMPKa) (Thr172) mAb, Acetyl-CoA Carboxylase (ACC) mAb, fatty acid synthase mAb RAs-related Nuclear protein (Ran) pAb, PPARc mAb, and C/EBPa pAb were all obtained from Cell Signaling Technology (Danvers, MA, USA). They were diluted by 1000 times for immunoblotting analyses.
At day 3 or day 8, cells are harvested with scraper and homogenized with lysis buffer containing 0.5 mM PMSF, 1 mM mini-complete protease inhibitor cocktail (Sigma, St. Louis, MO, USA) and phosphatase inhibitor cocktail (Sigma, St. Louis, MO, USA). Lysates are syringed with 26 gauge ½ in. needles on ice and then applied for centrifugation at 14,000g for 15 min at 4° C. Protein concentration of cell lysates are determined by using Protein and Protein Broad Range (BR) Assay Kits (Thermofisher, Waltham, MA USA) according to the venture's protocol. Lysates are then stored at −80° C. or immediately are subjected to sodium dodecyl sulfate polyacrylamide gel electrophoresis (SDS-PAGE). For the SDS-PAGE, cell lysates are mixed with loading buffer and heated at 95° C. for 5 min prior to electrophoresis. […] Quantification is performed by measuring band intensity using ImageJ software and calculating the ratio of protein of interesting to RAN the internal loading control.
A general note: In western blotting, separated proteins are transferred to a membrane and probed.

Data set [1] in a line: MTT assay, pre-confluent cell proliferation. The conditions noted are these: mouse, pre-confluent 3T3-L1 preadipocytes, percent of control. As to the method:
3T3-L1 cells were purchased from American Type Culture Collection (ATCC, Rockville, MD) and maintained in MEME media with 10% FBS 1% penicillin/streptomycin (GIBCO, Paisley, UK) in a humidified atmosphere of 5% CO2 in air at 37° C. Cells were passaged by using 0.05% (vol) Trypsin and replated in 55-cm^2 dishes at a density of 1*10^4 cells/cm^2 until confluence.
For treatment, nobiletin and the mixture of 6- and 7-OH-nobiletin (M67N) in a 1:49 ratio were first dissolved in dimethyl sulphoxide (DMSO) to make stock solution (5 mM to 100 mM). (FIG. 20) The stock solution was then diluted by 1000 times with culture medium to designated concentrations. Cells cultured in full DMEM was set as negative control while cells treated with DM with 0.1% DMSO as positive control.
(§1) 3T3-L1 cells were seeded on 96-well plate at density of 1×10^4 cells/well and incubated overnight for cell attachment. For measuring pre-confluent cell proliferation, cells were cultivated for 36 hours and full MEME with or without nobiletin or M67N was used. For measuring post-confluent cell proliferation during first three days of differentiation, cells were switched to DM with different concentrations of nobiletin or M67N for 72 hours. At the end of each treatment, cells were washed with PBS three times. MTT ([…]) was added at concentration of 0.5 mg/mL to the cells. After a 3-hour incubation, the medium was decanted from each well and 150 μL DMSO was added to dissolve the formed formazan crystals on a shaker. When the crystal was completely dissolved, the absorbance at 570 nm was measured. Cell viability was interpreted as the percentage (%) of the readout of treated cells divided by that of control. Six repeats were carried out for each concentration.
(§2) 3T3-L1 cells were seeded on 96-well plate at density of 1×10^4 cells/well and were incubated overnight for cell attachment. For measuring pre-confluent cell proliferation, full MEME with or without nobiletin or 6-OH-nobiletin, or 7-OH-nobiletin was used and cells were cultivated for 36 hours. For measuring post-confluent cell proliferation during the first three days of differentiation, cells were treated after 2 days of confluence. Specifically, cells were switched to differentiation medium (DM) with different concentrations of targeted compounds for 24 hours. At the end of each treatment, cells were washed with PBS three times followed by the addition of 100 μL MTT at concentration of 0.5 mg/mL. After 3 hours' incubation, the medium in each well were decanted while 150 μL DMSO was added to dissolve the formed formazan crystals at a shaker. When the crystals were completely dissolved, the absorbance of at 590 nm was measured. Cell viability was interpreted as the percentage (%) of the readout of treated cells divided by that of control. Five repeats were carried out for each concentration.
In general terms: Tetrazolium assays rely on reduction of a dye to a coloured formazan, in cell work by metabolically active cells.

Data set [2] can be described thus: MTT assay, post-confluent cells (mitotic clonal expansion). To be noted: mouse, post-confluent 3T3-L1 cells, percent of control, read-out: cell viability. As to the method: as §1, §2
The subject of data set [3] is post-confluent 3T3-L1 cells. The data set is described as above. The conditions noted are these: 5 μM to 25 μM. As to the method:
as §1, §2

Take `COc1ccc(-c2cc(=O)c3c(OC)c(O)c(OC)c(OC)c3o2)cc1OC` [6-OH-nobiletin, 6-hydroxy-5,7,8,3′,4′-pentamethoxyflavone]: the “expression of FAS” value in the data set on FAS is recorded as “significantly suppressed their expression”. Besides, the viability at 36 h, 75 µM in data set [1] (75 μM) is ~82%. In addition, the viability at 36 h, 100 µM in data set [1] (100 μM) is ~65%. In addition, the viability at 24 h, 35 µM in data set [2] (35 μM) turned out to be 83.1 ± 6.2%. Besides, the viability at 24 h, 50 µM in data set [2] (50 μM) amounted to 85.6 ± 5.3%. In addition, the “change of cell viability” value in data set [3] is on record as “no significant difference”.

As usually defined, the viability is a per cent measure of how many cells are alive, often set against a control.
